8 compounds from ChEMBL document CHEMBL3608278 (J Med Chem, 2015) can be followed below.

Assay [1] addresses T1, Potassium voltage-gated channel subfamily A member 3 (Homo sapiens, UniProt P22001). Type of assay: cell-based, CHO-K1.
For assay [2], the target named is T1, Potassium voltage-gated channel subfamily A member 3. Nature of the assay: cell-based. Also noted: species or system Blood.
For assay [3] the target is unchanged. Also noted: species or system Blood.

pIC50: −log10 of the molar value. Bounds are passed on as bounds.

T1 sequence (P22001 whole entry): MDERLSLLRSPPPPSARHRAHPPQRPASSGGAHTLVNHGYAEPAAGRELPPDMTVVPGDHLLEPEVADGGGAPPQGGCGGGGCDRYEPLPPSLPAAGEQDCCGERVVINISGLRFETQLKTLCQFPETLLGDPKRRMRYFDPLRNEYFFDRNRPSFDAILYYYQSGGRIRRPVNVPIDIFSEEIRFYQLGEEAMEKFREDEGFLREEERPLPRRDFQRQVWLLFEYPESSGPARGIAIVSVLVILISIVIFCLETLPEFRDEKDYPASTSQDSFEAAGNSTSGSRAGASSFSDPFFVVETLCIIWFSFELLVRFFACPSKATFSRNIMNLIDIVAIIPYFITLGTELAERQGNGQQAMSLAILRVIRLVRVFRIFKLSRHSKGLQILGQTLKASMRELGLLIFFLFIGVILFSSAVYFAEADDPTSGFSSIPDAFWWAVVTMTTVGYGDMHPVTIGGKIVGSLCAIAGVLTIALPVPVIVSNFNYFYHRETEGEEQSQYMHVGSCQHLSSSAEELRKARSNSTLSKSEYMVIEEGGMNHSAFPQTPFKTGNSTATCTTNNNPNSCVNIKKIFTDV

As for `CC[C@H](C)[C@@H]1NC(=O)[C@@H](NC(=O)[C@H](CO)NC(=O)[C@@H](N)CCCNC(=N)N)CSSC[C@@H](C(=O)O)NC(=O)[C@H]([C@@H](C)O)NC(=O)CNC(=O)[C@@H]2CSSC[C@@H]3NC(=O)[C@H](CCC(N)=O)NC(=O)[C@H](Cc4ccccc4)NC(=O)[C@H](C)NC(=O)[C@H]([C@@H](C)O)NC(=O)[C@H](CSSC[C@H](NC(=O)[C@H](Cc4ccccc4)NC(=O)[C@H](CO)NC(=O)[C@H](CC(C)C)NC(=O)[C@H](CCCNC(=N)N)NC(=O)[C@H](Cc4ccc(O)cc4)NC(=O)[C@H](CCCCN)NC(=O)[C@H](CCSC)NC(=O)[C@H](CO)NC(=O)[C@H](Cc4cnc[nH]4)NC(=O)[C@H](CCCCN)NC3=O)C(=O)N[C@@H](CCCNC(=N)N)C(=O)N[C@@H](CCCCN)C(=O)N[C@@H]([C@@H](C)O)C(=O)N2)NC(=O)[C@H](CCCNC(=N)N)NC(=O)[C@H](CO)NC(=O)[C@H](CCCCN)NC(=O)[C@@H]2CCCN2C(=O)[C@H](Cc2cccc3ccccc23)NC(=O)[C@H]([C@@H](C)O)NC(=O)[C@H](CC(=O)O)NC1=O`, the negative-log IC50 (pIC50) (in general, the negative decadic logarithm of the IC50, by convention in mol/L) in assay [1] is less than 8.48; in assay [2], 7.94; in assay [3], 7.74.
For `CC[C@H](C)[C@@H]1NC(=O)[C@@H](NC(=O)[C@H](CO)NC(=O)[C@@H](N)CCCNC(=N)N)CSSC[C@@H](C(=O)O)NC(=O)[C@H]([C@@H](C)O)NC(=O)CNC(=O)[C@@H]2CSSC[C@@H]3NC(=O)[C@H](Cc4cccc5ccccc45)NC(=O)[C@H](Cc4ccccc4)NC(=O)[C@H](C)NC(=O)[C@H]([C@@H](C)O)NC(=O)[C@H](CSSC[C@H](NC(=O)[C@H](Cc4ccccc4)NC(=O)[C@H](CO)NC(=O)[C@H](CC(C)C)NC(=O)[C@H](CCCNC(=N)N)NC(=O)[C@H](Cc4ccc(O)cc4)NC(=O)[C@H](CCCCN)NC(=O)[C@H](CCSC)NC(=O)[C@H](CO)NC(=O)[C@H](Cc4cnc[nH]4)NC(=O)[C@H](CCCCN)NC3=O)C(=O)N[C@@H](CCCNC(=N)N)C(=O)N[C@@H](CCCCN)C(=O)N[C@@H]([C@@H](C)O)C(=O)N2)NC(=O)[C@H](CCCNC(=N)N)NC(=O)[C@H](CO)NC(=O)[C@H](CCCCN)NC(=O)[C@@H]2CCCN2C(=O)[C@H]([C@@H](C)CC)NC(=O)[C@H]([C@@H](C)O)NC(=O)[C@H](CC(=O)O)NC1=O` the same measures were 8.84, 7.54 and 8.02.
For `CC[C@H](C)[C@@H]1NC(=O)[C@@H](NC(=O)[C@H](CO)NC(=O)[C@@H](N)CCCNC(=N)N)CSSC[C@@H](C(=O)O)NC(=O)[C@H]([C@@H](C)O)NC(=O)CNC(=O)[C@@H]2CSSC[C@@H]3NC(=O)[C@H](CCC(N)=O)NC(=O)[C@H](Cc4ccccc4)NC(=O)[C@H](C)NC(=O)[C@H]([C@@H](C)O)NC(=O)[C@H](CSSC[C@H](NC(=O)[C@H](Cc4ccccc4)NC(=O)[C@H](CO)NC(=O)[C@H](CC(C)C)NC(=O)[C@H](CCCNC(=N)N)NC(=O)[C@H](Cc4ccc(O)cc4)NC(=O)[C@H](CCCCN)NC(=O)[C@H](CCSC)NC(=O)[C@H](Cc4cccc5ccccc45)NC(=O)[C@H](Cc4cnc[nH]4)NC(=O)[C@H](CCCCN)NC3=O)C(=O)N[C@@H](CCCNC(=N)N)C(=O)N[C@@H](CCCCN)C(=O)N[C@@H]([C@@H](C)O)C(=O)N2)NC(=O)[C@H](CCCNC(=N)N)NC(=O)[C@H](CO)NC(=O)[C@H](CCCCN)NC(=O)[C@@H]2CCCN2C(=O)[C@H]([C@@H](C)CC)NC(=O)[C@H]([C@@H](C)O)NC(=O)[C@H](CC(=O)O)NC1=O` the same measures were less than 8.48, less than 7.00 and less than 7.00.
For `CC[C@H](C)[C@@H]1NC(=O)[C@@H](NC(=O)[C@H](CO)NC(=O)[C@@H](N)CCCNC(=N)N)CSSC[C@@H](C(=O)O)NC(=O)[C@H]([C@@H](C)O)NC(=O)CNC(=O)[C@@H]2CSSC[C@@H]3NC(=O)[C@H](CCC(N)=O)NC(=O)[C@H](Cc4ccccc4)NC(=O)[C@H](C)NC(=O)[C@H]([C@@H](C)O)NC(=O)[C@H](CSSC[C@H](NC(=O)[C@H](Cc4ccccc4)NC(=O)[C@H](CO)NC(=O)[C@H](CC(C)C)NC(=O)[C@H](CCCNC(=N)N)NC(=O)[C@H](Cc4ccc(O)cc4)NC(=O)[C@H](CCCCN)NC(=O)[C@H](Cc4cccc5ccccc45)NC(=O)[C@H](CO)NC(=O)[C@H](Cc4cnc[nH]4)NC(=O)[C@H](CCCCN)NC3=O)C(=O)N[C@@H](CCCNC(=N)N)C(=O)N[C@@H](CCCCN)C(=O)N[C@@H]([C@@H](C)O)C(=O)N2)NC(=O)[C@H](CCCNC(=N)N)NC(=O)[C@H](CO)NC(=O)[C@H](CCCCN)NC(=O)[C@@H]2CCCN2C(=O)[C@H]([C@@H](C)CC)NC(=O)[C@H]([C@@H](C)O)NC(=O)[C@H](CC(=O)O)NC1=O` the same measures were 9.07, 8.18 and 8.09.
With `CC[C@H](C)[C@@H]1NC(=O)[C@@H](NC(=O)[C@H](CO)NC(=O)[C@@H](N)CCCNC(=N)N)CSSC[C@@H](C(=O)O)NC(=O)[C@H]([C@@H](C)O)NC(=O)CNC(=O)[C@@H]2CSSC[C@@H]3NC(=O)[C@H](CCC(N)=O)NC(=O)[C@H](Cc4ccccc4)NC(=O)[C@H](C)NC(=O)[C@H]([C@@H](C)O)NC(=O)[C@H](CSSC[C@H](NC(=O)[C@H](Cc4ccccc4)NC(=O)[C@H](CO)NC(=O)[C@H](CC(C)C)NC(=O)[C@H](CCCNC(=N)N)NC(=O)[C@H](Cc4ccc(O)cc4)NC(=O)[C@H](Cc4cccc5ccccc45)NC(=O)[C@H](CCSC)NC(=O)[C@H](CO)NC(=O)[C@H](Cc4cnc[nH]4)NC(=O)[C@H](CCCCN)NC3=O)C(=O)N[C@@H](CCCNC(=N)N)C(=O)N[C@@H](CCCCN)C(=O)N[C@@H]([C@@H](C)O)C(=O)N2)NC(=O)[C@H](CCCNC(=N)N)NC(=O)[C@H](CO)NC(=O)[C@H](CCCCN)NC(=O)[C@@H]2CCCN2C(=O)[C@H]([C@@H](C)CC)NC(=O)[C@H]([C@@H](C)O)NC(=O)[C@H](CC(=O)O)NC1=O`, the negative logarithm of the IC50 (pIC50) in assay [1] is less than 8.48; in assay [2], less than 7.00; in assay [3] it was less than 7.00.
For the compound `CC[C@H](C)[C@@H]1NC(=O)[C@@H](NC(=O)[C@H](CO)NC(=O)[C@@H](N)CCCNC(=N)N)CSSC[C@@H](C(=O)O)NC(=O)[C@H]([C@@H](C)O)NC(=O)CNC(=O)[C@@H]2CSSC[C@@H]3NC(=O)[C@H](CCC(N)=O)NC(=O)[C@H](Cc4ccccc4)NC(=O)[C@H](C)NC(=O)[C@H]([C@@H](C)O)NC(=O)[C@H](CSSC[C@H](NC(=O)[C@H](Cc4ccccc4)NC(=O)[C@H](CO)NC(=O)[C@H](Cc4cccc5ccccc45)NC(=O)[C@H](CCCNC(=N)N)NC(=O)[C@H](Cc4ccc(O)cc4)NC(=O)[C@H](CCCCN)NC(=O)[C@H](CCSC)NC(=O)[C@H](CO)NC(=O)[C@H](Cc4cnc[nH]4)NC(=O)[C@H](CCCCN)NC3=O)C(=O)N[C@@H](CCCNC(=N)N)C(=O)N[C@@H](CCCCN)C(=O)N[C@@H]([C@@H](C)O)C(=O)N2)NC(=O)[C@H](CCCNC(=N)N)NC(=O)[C@H](CO)NC(=O)[C@H](CCCCN)NC(=O)[C@@H]2CCCN2C(=O)[C@H]([C@@H](C)CC)NC(=O)[C@H]([C@@H](C)O)NC(=O)[C@H](CC(=O)O)NC1=O`, the negative-log IC50 (pIC50) in assay [1] was 9.99; in assay [2], 10.21; in assay [3], 10.08.
With `CC[C@H](C)[C@@H]1NC(=O)[C@@H](NC(=O)[C@H](CO)NC(=O)[C@@H](N)CCCNC(=N)N)CSSC[C@@H](C(=O)O)NC(=O)[C@H]([C@@H](C)O)NC(=O)CNC(=O)[C@@H]2CSSC[C@@H]3NC(=O)[C@H](CCC(N)=O)NC(=O)[C@H](Cc4ccccc4)NC(=O)[C@H](C)NC(=O)[C@H]([C@@H](C)O)NC(=O)[C@H](CSSC[C@H](NC(=O)[C@H](Cc4cccc5ccccc45)NC(=O)[C@H](CO)NC(=O)[C@H](CC(C)C)NC(=O)[C@H](CCCNC(=N)N)NC(=O)[C@H](Cc4ccc(O)cc4)NC(=O)[C@H](CCCCN)NC(=O)[C@H](CCSC)NC(=O)[C@H](CO)NC(=O)[C@H](Cc4cnc[nH]4)NC(=O)[C@H](CCCCN)NC3=O)C(=O)N[C@@H](CCCNC(=N)N)C(=O)N[C@@H](CCCCN)C(=O)N[C@@H]([C@@H](C)O)C(=O)N2)NC(=O)[C@H](CCCNC(=N)N)NC(=O)[C@H](CO)NC(=O)[C@H](CCCCN)NC(=O)[C@@H]2CCCN2C(=O)[C@H]([C@@H](C)CC)NC(=O)[C@H]([C@@H](C)O)NC(=O)[C@H](CC(=O)O)NC1=O`, the pIC50 in assay [1] is 9.65; in assay [2], 8.97; in assay [3], 8.55.
For `CC[C@H](C)[C@@H]1NC(=O)[C@@H](NC(=O)[C@H](CO)NC(=O)[C@@H](N)CCCNC(=N)N)CSSC[C@@H](C(=O)O)NC(=O)[C@H]([C@@H](C)O)NC(=O)CNC(=O)[C@@H]2CSSC[C@@H]3NC(=O)[C@H](CCC(N)=O)NC(=O)[C@H](Cc4ccccc4)NC(=O)[C@H](C)NC(=O)[C@H]([C@@H](C)O)NC(=O)[C@H](CSSC[C@H](NC(=O)[C@H](Cc4ccccc4)NC(=O)[C@H](CO)NC(=O)[C@H](CC(C)C)NC(=O)[C@H](CCCNC(=N)N)NC(=O)[C@H](Cc4ccc(O)cc4)NC(=O)[C@H](CCCCN)NC(=O)[C@H](CCSC)NC(=O)[C@H](CO)NC(=O)[C@H](Cc4cnc[nH]4)NC(=O)[C@H](CCCCN)NC3=O)C(=O)N[C@@H](Cc3cccc4ccccc34)C(=O)N[C@@H](CCCCN)C(=O)N[C@@H]([C@@H](C)O)C(=O)N2)NC(=O)[C@H](CCCNC(=N)N)NC(=O)[C@H](CO)NC(=O)[C@H](CCCCN)NC(=O)[C@@H]2CCCN2C(=O)[C@H]([C@@H](C)CC)NC(=O)[C@H]([C@@H](C)O)NC(=O)[C@H](CC(=O)O)NC1=O` the same measures were less than 8.48, 8.33 and 8.09.
